Earlier results in patent US20180015057A1, “ERR ALPHA AND ERR GAMMA ARE ESSENTIAL COORDINATORS OF CARDIAC METABOLISM AND FUNCTION” (Salk Institute for Biological Studies, priority 2015, published 2018).

Legend:
ERRβ = target: T1, ERRβ (Homo sapiens, UniProt O95718); details: for activation of ERRβ: for example in the presence of PGC-1a
T1 sequence (O95718 1-433): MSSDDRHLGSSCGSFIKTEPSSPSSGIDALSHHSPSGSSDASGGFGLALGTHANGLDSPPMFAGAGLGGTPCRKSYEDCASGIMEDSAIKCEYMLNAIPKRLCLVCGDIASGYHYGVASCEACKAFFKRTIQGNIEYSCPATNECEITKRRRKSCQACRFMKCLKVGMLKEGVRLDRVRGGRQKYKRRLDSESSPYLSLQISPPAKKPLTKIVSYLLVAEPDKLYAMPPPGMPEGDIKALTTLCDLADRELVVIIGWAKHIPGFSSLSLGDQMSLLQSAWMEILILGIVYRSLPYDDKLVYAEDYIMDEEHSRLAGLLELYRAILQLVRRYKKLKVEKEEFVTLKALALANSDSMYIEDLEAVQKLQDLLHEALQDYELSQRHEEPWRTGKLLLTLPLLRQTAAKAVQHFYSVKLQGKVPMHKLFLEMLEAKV

ERRγ = target: T2, ERRγ (Homo sapiens, UniProt P62508); details: for activation of ERRγ: for example in the presence of PGC-1a
T2 sequence (P62508 1-458): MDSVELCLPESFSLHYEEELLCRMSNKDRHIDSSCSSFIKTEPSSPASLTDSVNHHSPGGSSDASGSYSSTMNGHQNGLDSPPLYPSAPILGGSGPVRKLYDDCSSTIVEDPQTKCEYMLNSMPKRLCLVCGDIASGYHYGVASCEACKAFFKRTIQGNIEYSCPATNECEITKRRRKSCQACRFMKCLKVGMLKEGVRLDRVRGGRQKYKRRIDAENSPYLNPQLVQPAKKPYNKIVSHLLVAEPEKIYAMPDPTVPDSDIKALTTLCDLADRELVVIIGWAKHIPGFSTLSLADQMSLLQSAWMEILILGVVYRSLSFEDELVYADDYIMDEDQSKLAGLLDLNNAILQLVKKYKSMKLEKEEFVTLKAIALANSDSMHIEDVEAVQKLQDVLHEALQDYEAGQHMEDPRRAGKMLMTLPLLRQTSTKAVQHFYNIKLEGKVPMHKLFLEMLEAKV

ERRα = target: T3, ERRα (Homo sapiens, UniProt P11474); details: for example in the presence of PGC-1a
T3 sequence (P11474 1-423): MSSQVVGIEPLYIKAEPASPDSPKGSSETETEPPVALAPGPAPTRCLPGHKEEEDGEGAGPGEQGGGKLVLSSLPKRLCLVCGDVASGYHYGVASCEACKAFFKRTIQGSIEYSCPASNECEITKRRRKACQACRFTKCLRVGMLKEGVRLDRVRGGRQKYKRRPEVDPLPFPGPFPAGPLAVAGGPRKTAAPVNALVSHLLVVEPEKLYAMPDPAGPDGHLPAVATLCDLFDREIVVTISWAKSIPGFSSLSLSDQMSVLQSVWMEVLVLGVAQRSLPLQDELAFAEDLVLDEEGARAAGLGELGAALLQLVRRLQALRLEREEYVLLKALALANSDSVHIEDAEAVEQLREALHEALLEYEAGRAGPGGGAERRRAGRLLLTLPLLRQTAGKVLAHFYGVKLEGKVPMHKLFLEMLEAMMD

| SMILES | agonism of ERRβ (ERRβ) | agonism of ERRγ (ERRγ) | activation of ERRα (ERRα) | activation of ERRβ (ERRβ) | activation of ERRγ (ERRγ) | selectivity for ERRγ versus ERRα and β (ERRγ; screening assay for agonists derived from GSK4716 (Kim et al. 2009)) |
| --- | --- | --- | --- | --- | --- | --- |
| CCN(CC)c1ccc(C=NNC(=O)c2ccc(O)cc2)cc1 (stereo in doubt) [GSK9089, N-[(E)-[4-(diethylamino)phenyl]methylideneamino]-4-hydroxybenzamide] | agonists | agonists | – | – | – | – |
| Cc1cccc(C=NNC(=O)c2ccc(O)cc2)c1 [DY159] | – | – | activate | activate | activate | – |
| O=C(NN=Cc1ccccc1)c1ccc(O)cc1 [DY162] | – | – | activate | activate | activate | – |
| Cc1ccc(/C=N/NC(=O)c2ccc(O)cc2)cc1 [DY163] | – | – | activate | activate | activate | – |
| CCc1ccc(C=NNC(=O)c2ccc(O)cc2)s1 [DY164] | – | – | activate | activate | activate | – |
| Nc1ccc(C(=O)N/N=C/c2ccc(/N=N/c3ccccc3)cc2)cn1 [E6] | – | – | – | – | – | selective for ERRγ but not ERRα and β |
| CC(C)c1ccc(/C=N/NC(=O)c2ccc(O)cc2)cc1 [GSK4716] | agonists | – | – | – | – | – |
